Measurements as given in patent US6653307B2, “1-aryl-4-oxo-1,4-dihydro-3-quinolinecarboxamides as antiviral agents” (Pharmacia & Upjohn Company, priority 2000, dated 2003).

How the values were obtained:
HCMV polymerase = biological target: T1, HCMV polymerase (Human cytomegalovirus, UniProt P08546); assay: HCMV polymerase scintillation proximity assay (SPA); type: biochemical; conditions: 3H-dTTP incorporation
T1 construct: made in house; host or cells: recombinant baculovirus-infected SF-9 cells
Protocol: (§1) The HCMV polymerase assay is performed using a scintillation proximity assay (SPA) as described in several references, such as N.D. Cook, et al., Pharmaceutical Manufacturing International, pages 49-53 (1992); K. Takeuchi, Laboratory Practice, September issue (1992); U.S. Pat. No. 4,568,649 (1986); which are incorporated by reference herein. Reactions are performed in 96-well plates. The assay is conducted in 100 μl volume with 5.4 mM HEPES (pH 7.5), 11.7 mM KCl, 4.5 mM MgCl2, 0.36 mg/ml BSA, and 90 nM ^3H-dTTP. Assays are run with and without CHAPS, (3-[(3-cholamidopropyl)-dimethylammonio]-1-propane-sulfonate) at a final concentration of 2 mM. HCMV polymerase is diluted in enzyme dilution buffer containing 50% glycerol, 250 mM NaCl, 10 mM HEPES (pH 7.5), 100 μg/ml BSA, and 0.01% sodium azide. The HCMV polymerase, which is expressed in recombinant baculovirus-infected SF-9 cells and purified according to literature procedures, is added at 10% (or 10 μl) of the final reaction volume, i.e., […]. Compounds are diluted in 50% DMSO and 10 μl are added to each well. Control wells contain an equivalent concentration of DMSO. Unless noted otherwise, reactions are initiated via the addition of 6 nM biotinylated poly(dA)-oligo(dT) template/primer to reaction mixtures containing the enzyme, substrate, and compounds of interest. Plates are incubated in a 25 C or 37 C H2O bath and terminated via the addition of 40 μl/reaction of 0.5 M EDTA (pH 8) per well. Reactions are terminated within the time-frame during which substrate incorporation is linear and varied depending upon the enzyme and conditions used, i.e., 30 min. for HCMV polymerase. Ten μl of streptavidin-SPA beads (20 mg/ml in PBS/10% glycerol) are added following termination of the reaction. Plates are incubated 10 min. at 37 C, then equilibrated to room temperature, and counted on a Packard Topcount. Linear regressions are performed and IC50's are calculated using computer software. A modified version of the above HCMV polymerase assay is performed as described above, but with the following changes: Compounds are diluted in 100% DMSO until final dilution into assay buffer. In the previous assay, compounds are diluted in 50% DMSO. 4.5 mM dithiotherotol (DTT) is added to the polymerase buffer.

HSV polymerase = HSV polymerase (Human herpesvirus 1, UniProt P04293); assay: HSV polymerase assay (Table 1); type: biochemical
Protocol: [Worded in the source for another target; this target is reported under the same test.] as §1

VZV polymerase = VZV polymerase (Varicella-zoster virus, UniProt P09252); assay: VZV polymerase assay (Table 1); type: biochemical
Protocol: [Worded in the source for another target; this target is reported under the same test.] as §1

T1 sequence (P08546 whole entry): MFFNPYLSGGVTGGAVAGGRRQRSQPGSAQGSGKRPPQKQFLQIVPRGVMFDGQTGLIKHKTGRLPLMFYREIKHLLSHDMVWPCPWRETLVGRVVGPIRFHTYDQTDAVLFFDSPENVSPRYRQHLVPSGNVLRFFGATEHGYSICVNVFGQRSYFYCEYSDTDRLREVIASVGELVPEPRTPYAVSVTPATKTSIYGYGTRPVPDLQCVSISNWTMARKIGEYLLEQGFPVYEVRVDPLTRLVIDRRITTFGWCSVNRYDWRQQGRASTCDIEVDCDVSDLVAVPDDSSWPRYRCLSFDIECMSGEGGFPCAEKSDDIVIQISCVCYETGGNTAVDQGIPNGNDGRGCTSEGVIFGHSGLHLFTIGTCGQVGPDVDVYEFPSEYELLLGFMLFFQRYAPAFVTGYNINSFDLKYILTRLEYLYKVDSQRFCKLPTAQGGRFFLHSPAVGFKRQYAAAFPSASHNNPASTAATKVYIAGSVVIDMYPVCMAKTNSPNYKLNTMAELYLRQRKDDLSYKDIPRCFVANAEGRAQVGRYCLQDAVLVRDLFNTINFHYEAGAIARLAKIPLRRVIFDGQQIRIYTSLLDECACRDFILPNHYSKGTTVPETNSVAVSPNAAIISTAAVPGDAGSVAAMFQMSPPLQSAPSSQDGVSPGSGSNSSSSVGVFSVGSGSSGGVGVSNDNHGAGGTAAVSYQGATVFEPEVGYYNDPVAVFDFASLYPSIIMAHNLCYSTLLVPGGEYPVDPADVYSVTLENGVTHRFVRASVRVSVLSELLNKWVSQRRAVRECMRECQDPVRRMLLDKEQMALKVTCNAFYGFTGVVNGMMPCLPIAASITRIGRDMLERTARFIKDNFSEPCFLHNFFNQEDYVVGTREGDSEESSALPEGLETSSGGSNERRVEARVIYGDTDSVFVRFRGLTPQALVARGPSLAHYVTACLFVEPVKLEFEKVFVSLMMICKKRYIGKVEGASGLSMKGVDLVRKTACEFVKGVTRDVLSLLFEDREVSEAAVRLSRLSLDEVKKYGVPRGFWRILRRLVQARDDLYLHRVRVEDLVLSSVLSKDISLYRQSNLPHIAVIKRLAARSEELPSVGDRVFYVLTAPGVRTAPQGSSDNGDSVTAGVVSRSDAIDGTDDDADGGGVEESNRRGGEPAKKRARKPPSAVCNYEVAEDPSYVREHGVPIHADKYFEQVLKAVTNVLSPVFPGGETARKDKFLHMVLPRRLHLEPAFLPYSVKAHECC
VZV polymerase, sequence (P09252 whole entry): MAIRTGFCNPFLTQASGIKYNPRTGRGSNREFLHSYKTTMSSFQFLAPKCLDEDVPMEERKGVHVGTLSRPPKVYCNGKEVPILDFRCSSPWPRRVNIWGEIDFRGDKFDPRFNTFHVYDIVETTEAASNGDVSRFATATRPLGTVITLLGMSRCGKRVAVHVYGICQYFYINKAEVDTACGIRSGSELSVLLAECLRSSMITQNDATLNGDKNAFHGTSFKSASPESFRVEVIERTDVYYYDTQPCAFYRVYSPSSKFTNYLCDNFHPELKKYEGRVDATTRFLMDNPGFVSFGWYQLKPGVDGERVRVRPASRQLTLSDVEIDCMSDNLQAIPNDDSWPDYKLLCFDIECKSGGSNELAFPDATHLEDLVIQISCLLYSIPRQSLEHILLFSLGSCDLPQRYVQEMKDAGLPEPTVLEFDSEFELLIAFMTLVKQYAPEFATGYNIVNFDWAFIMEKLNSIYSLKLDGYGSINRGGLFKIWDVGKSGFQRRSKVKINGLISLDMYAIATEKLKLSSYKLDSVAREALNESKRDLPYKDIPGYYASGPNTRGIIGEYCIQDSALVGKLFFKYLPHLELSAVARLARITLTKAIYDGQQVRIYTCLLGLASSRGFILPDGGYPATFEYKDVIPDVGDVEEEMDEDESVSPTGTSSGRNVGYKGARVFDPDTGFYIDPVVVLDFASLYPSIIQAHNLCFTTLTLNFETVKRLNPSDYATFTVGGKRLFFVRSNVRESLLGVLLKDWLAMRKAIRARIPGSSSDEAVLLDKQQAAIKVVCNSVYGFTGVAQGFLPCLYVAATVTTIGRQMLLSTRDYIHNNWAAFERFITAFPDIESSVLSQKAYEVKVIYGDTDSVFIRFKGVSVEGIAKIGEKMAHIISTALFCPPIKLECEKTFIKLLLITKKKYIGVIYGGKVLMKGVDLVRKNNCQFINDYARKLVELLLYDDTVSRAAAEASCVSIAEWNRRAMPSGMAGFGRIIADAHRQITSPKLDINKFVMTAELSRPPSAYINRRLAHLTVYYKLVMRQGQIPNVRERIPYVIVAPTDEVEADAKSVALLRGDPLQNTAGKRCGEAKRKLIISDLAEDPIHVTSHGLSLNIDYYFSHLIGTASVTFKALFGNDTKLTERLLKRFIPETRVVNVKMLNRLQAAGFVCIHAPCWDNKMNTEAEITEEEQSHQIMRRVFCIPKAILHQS
HSV polymerase, sequence (P04293 whole entry): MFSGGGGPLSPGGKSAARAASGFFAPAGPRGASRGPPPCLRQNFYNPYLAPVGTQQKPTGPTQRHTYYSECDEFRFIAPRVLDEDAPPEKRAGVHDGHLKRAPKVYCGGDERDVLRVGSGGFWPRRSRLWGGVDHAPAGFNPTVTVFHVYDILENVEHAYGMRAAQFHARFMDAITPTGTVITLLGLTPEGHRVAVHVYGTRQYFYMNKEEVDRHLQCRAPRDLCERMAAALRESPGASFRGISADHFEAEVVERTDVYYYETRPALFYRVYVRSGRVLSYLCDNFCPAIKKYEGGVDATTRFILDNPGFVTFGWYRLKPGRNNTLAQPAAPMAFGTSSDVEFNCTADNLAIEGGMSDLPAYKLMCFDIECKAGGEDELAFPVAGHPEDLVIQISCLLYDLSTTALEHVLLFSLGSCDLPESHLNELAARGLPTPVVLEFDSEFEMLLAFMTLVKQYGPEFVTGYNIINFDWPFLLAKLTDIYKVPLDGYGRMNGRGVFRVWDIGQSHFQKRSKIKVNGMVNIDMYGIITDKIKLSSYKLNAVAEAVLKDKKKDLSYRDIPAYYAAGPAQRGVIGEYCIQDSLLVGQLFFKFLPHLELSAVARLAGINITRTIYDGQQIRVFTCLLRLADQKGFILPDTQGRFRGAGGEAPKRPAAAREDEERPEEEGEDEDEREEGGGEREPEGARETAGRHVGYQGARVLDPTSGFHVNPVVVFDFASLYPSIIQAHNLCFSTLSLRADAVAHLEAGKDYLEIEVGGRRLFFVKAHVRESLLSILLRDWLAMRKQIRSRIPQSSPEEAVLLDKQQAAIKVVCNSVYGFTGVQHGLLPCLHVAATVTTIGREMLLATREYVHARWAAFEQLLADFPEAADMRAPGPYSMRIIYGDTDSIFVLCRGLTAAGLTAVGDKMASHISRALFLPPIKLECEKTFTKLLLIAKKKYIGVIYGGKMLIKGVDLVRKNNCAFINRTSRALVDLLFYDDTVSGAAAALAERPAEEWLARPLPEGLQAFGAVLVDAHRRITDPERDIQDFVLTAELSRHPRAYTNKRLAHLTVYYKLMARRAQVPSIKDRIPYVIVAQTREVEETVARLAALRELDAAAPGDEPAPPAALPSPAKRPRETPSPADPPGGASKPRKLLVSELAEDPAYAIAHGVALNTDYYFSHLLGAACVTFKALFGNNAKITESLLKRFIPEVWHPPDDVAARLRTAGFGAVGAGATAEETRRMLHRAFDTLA

IC50 (HCMV polymerase)	IC50 (HSV polymerase)	IC50 (VZV polymerase)	melting point	SMILES
0.81 µM	0.55 µM	0.4 µM	168 to 169 °C	O=C(NCc1ccc(Cl)cc1)c1cn(-c2ccccc2)c2ccc(CN3CCOCC3)cc2c1=O [Example 1, N-(4-Chlorobenzyl)-6-(4-morpholinylmethyl)-4-oxo-1-phenyl-1,4-dihydro-3-quinolinecarboxamide]
3 µM	–	–	148 to 150 °C	Cc1ccccc1-n1cc(C(=O)NCc2ccc(Cl)cc2)c(=O)c2cc(CN3CCOCC3)ccc21 [Example 2, N-(4-Chlorobenzyl)-1-(2-methylphenyl)-6-(4-morpholinylmethyl)-4-oxo-1,4-dihydro-3-quinolinecarboxamide]
2.1 µM	–	–	176 to 179 °C	O=C(NCc1ccc(Cl)cc1)c1cn(-c2cccc(I)c2)c2ccc(CN3CCOCC3)cc2c1=O [Example 3, N-(4-Chlorobenzyl)-1-(3-iodophenyl)-6-(4-morpholinylmethyl)-4-oxo-1,4-dihydro-3-quinolinecarboxamide]
1.1 µM	–	–	189 to 191 °C	O=C(NCc1ccc(Cl)cc1)c1cn(-c2ccc(Cl)cc2)c2ccc(CN3CCOCC3)cc2c1=O [Example 4, N-(4-Chlorobenzyl)-1-(4-chlorophenyl)-6-(4-morpholinylmethyl)-4-oxo-1,4-dihydro-3-quinolinecarboxamide]
4 µM	–	–	199 to 203 °C	CC(C)c1ccc(-n2cc(C(=O)NCc3ccc(Cl)cc3)c(=O)c3cc(CN4CCOCC4)ccc32)cc1 [Example 5, N-(4-Chlorobenzyl)-1-(4-isopropylphenyl)-6-(4-morpholinylmethyl)-4-oxo-1,4-dihydro-3-quinolinecarboxamnide]
1.1 µM	–	–	189 to 191 °C	COc1ccc(-n2cc(C(=O)NCc3ccc(Cl)cc3)c(=O)c3cc(CN4CCOCC4)ccc32)cc1 [Example 6, N-(4-Chlorobenzyl)-1-(4-methoxyphenyl)-6-(4-morpholinylmethyl)-4-oxo-1,4-dihydro-3-quinolinecarboxamide]
2 µM	–	–	–	O=C(NCc1ccc(F)cc1)c1cn(-c2ccc(Cl)cc2)c2ccc(CN3CCOCC3)cc2c1=O [Example 7, N-(4-Fluorobenzyl)-1-(4-chlorophenyl)-6-(4-morpholinylmethyl)-4-oxo-1,4-dihydro-3-quinolinecarboxamide]
1.47 µM	–	–	162 to 163 °C	O=C(NCc1ccc(Cl)cc1)c1cn(-c2ccccc2CO)c2ccc(CN3CCOCC3)cc2c1=O [Example 8, N-(4-Chlorobenzyl)-1-(2-(hydroxymethyl)phenyl)-6-(4-morpholinylmethyl)-4-oxo-1,4-dihydro-3-quinolinecarboxamide]
1.32 µM	–	–	123 to 125 °C	O=C(NCc1ccc(Cl)cc1)c1cn(-c2ccc3c(c2)CCC3)c2ccc(CN3CCOCC3)cc2c1=O [Example 9, N-(4-Chlorobenzyl)-1-(2,3-dihydro-1H-inden-5-yl)-6-(4-morpholinylmethyl)-4-oxo-1,4-dihydro-3-quinolinecarboxamide]
0.89 µM	–	–	188 to 189 °C	O=C(NCc1ccc(Cl)cc1)c1cn(-c2ccc3c(c2)OCO3)c2ccc(CN3CCOCC3)cc2c1=O [Example 10, 1-(1,3-Benzodioxol-5-yl)-N-(4-chlorobenzyl)-6-(4-morpholinylmethyl)-4-oxo-1,4-dihydro-3-quinolinecarboxamide]
1.18 µM	–	–	241 to 243 °C	O=C(NCc1ccc(Cl)cc1)c1cn(-c2ccc3[nH]ccc3c2)c2ccc(CN3CCOCC3)cc2c1=O [Example 11, N-(4-Chlorobenzyl)-1-(1H-indol-5-yl)-6-(4-morpholinylmethyl)-4-oxo-1,4-dihydro-3-quinolinecarboxamide]
2.2 µM	–	–	223 to 225 °C	O=C(NCc1ccc(F)cc1)c1cn(-c2ccc3[nH]ccc3c2)c2ccc(CN3CCOCC3)cc2c1=O [Example 12, N-(4-Fluorobenzyl)-1-(1 H-indol-5-yl)-6-(4-morpholinylmethyl)-4-oxo-1,4-dihydro-3-quinolinecarboxamide]
0.73 µM	0.54 µM	0.24 µM	248 to 250 °C	O=C(NCc1ccc(Cl)cc1)c1cn(-c2cccc(O)c2)c2ccc(CN3CCOCC3)cc2c1=O [Example 13, N-(4-Chlorobenzyl)-I-(3-hydroxyphenyl)-6-(4-morpholinylmethyl)-4-oxo-1,4-dihydro-3-quinolinecarboxamide]
0.82 µM	0.7 µM	0.43 µM	158 to 160 °C	O=C(NCc1ccc(Cl)cc1)c1cn(-c2cccc(CCO)c2)c2ccc(CN3CCOCC3)cc2c1=O [Example 14, N-(4-Chlorobenzyl)-1-(3-(2-hydroxyethyl)phenyl)-6-(4-morpholinylmethyl)-4-oxo-1,4-dihydro-3-quinolinecarboxamide]
1.7 µM	–	–	128 to 132 °C	O=C(NCc1ccc(F)cc1)c1cn(-c2cccc(CCO)c2)c2ccc(CN3CCOCC3)cc2c1=O [Example 15, N-(4-Fluorobenzyl)-1-(3-(2-hydroxyethyl)phenyl)-6-(4-morpholinylmethyl)-4-oxo-1,4-dihydro-3-quinolinecarboxamide]
1.9 µM	–	–	110 to 113 °C	COc1cccc(-n2cc(C(=O)NCc3ccc(Cl)cc3)c(=O)c3cc(CN4CCOCC4)ccc32)c1 [Example 16, N-(4-Chlorobenzyl)-1-(3-methoxyphenyl)-6-(4-morpholinylmethyl)-4-oxo-1,4-dihydro-3-quinolinecarboxamide]
1.21 µM	–	–	162 to 164 °C	O=C(NCc1ccc(Cl)cc1)c1cn(-c2ccc(N3CCOCC3)cc2)c2ccc(CN3CCOCC3)cc2c1=O [Example 18, N-(4-Chlorobenzyl)-6-(4-morpholinylmethyl)-1-(4-(4-morpholinyl)phenyl)-4-oxo-1,4-dihydro-3-quinolinecarboxamide]
1.05 µM	–	–	107 to 110 °C	O=C(NCc1ccc(Cl)cc1)c1cn(-c2ccc(F)c(F)c2)c2ccc(CN3CCOCC3)cc2c1=O [Example 19, N-(4-Chlorobenzyl)-1-(3,4-difluorophenyl)-6-(4-morpholinylmethyl)-4-oxo-1,4-dihydro-3-quinolinecarboxamide]
1.13 µM	–	–	125 to 128 °C	O=C(NCc1ccc(Cl)cc1)c1cn(-c2cccc(C#CCCO)c2)c2ccc(CN3CCOCC3)cc2c1=O [Example 21, N-(4-Chlorobenzyl)-1-(3-(4-hydroxy-1-butynyl)phenyl)-6-(4-morpholinylmethyl)-4-oxo-1,4-dihydro-3-quinolinecarboxamide]
0.93 µM	–	–	125 to 128 °C	O=C(NCc1ccc(Cl)cc1)c1cn(-c2cccc(C#CCCCO)c2)c2ccc(CN3CCOCC3)cc2c1=O [Example 22]
0.76 µM	–	–	142 to 144 °C	O=C(NCc1ccc(Cl)cc1)c1cn(-c2cccc(CCCCCO)c2)c2ccc(CN3CCOCC3)cc2c1=O [Example 23, N-(4-Chlorobenzyl)-1-(3-(5-hydroxypentyl)phenyl)-6-(4-morpholinylmethyl)-4-oxo-1,4-dihydro-3-quinolinecarboxamide]
0.68 µM	–	–	119 to 121 °C	O=C(NCc1ccc(Cl)cc1)c1cn(-c2cccc(CCCCO)c2)c2ccc(CN3CCOCC3)cc2c1=O [Example 24, N-(4-Chlorobenzyl)-1-(3-(4-hydroxybutyl)phenyl)-6-(4-morpholinylmethyl)-4-oxo-1,4-dihydro-3-quinolinecarboxamide]
